Test results as given in article PMC5573760 (Cancer Chemotherapy and Pharmacology, 2017).
Entries after “also recorded” stand apart in the source; their conditions may differ.

Columns and labels:
[1] = Safety and tolerability assessment in healthy male volunteers; assay type: in vivo, human
Excerpt: Physical examination, blood pressure, pulse rate, body temperature and body weight, laboratory parameters and 12-lead electrocardiogram (ECG), as well as adverse events using the common terminology criteria for adverse events (CTCAE) Version 4.03, were monitored throughout the study for safety assessment.

P-glycoprotein (P-gp) = system: P-glycoprotein (P-gp); parameters: method as in Bayer AG, data on file; conditions: in vitro; ref Bayer AG, data on file; cited from earlier work
PI3K-α = conditions: cited from earlier work
[2] = assay type: in vivo, human
Experimental: All subjects gave written informed consent; the study was conducted at PRA Health Sciences (Zuidlaren, The Netherlands) in accordance with the Declaration of Helsinki and was approved by an accredited institutional ethics committee (Medisch Ethische Toetsings Commissie, Assen, The Netherlands).
Subjects remained fasting until 2-h after the end of the infusion. Volunteers stayed in-house until 14 days after the application and subsequently urine and feces were collected for 24-h on Day 16, 20, 27 and 34 if necessary, cf. below.
Urine was collected pre-dose, at 0–12-h and 12–24 h after the start of the infusion and thereafter over 24-h intervals on Day 2 to Day 14 as well as on Day 16, 20, 27 and 34 (±1 day). Cumulative 24-h fecal samples were collected from Day 1 (day of infusion) to Day 14 and as well as on Day 16, 20, 27 and 34 (±1 day). […] The excreted radioactivity between ambulant visits during the prolongation phase of the clinical study was calculated using interpolation to get a more realistic total excretion value of all subjects (see "Pharmacokinetic analysis").
After pooling and homogenization of urine and feces samples per time interval, aliquots were stored at −20 °C for total radioactivity determination and at −70°C for metabolic profiling (including blood/plasma samples). For determination of total radioactivity, samples were analyzed with a Perkin Elmer Tri-Carb™ 3100 TR liquid scintillation analyzer (Perkin Elmer, Waltham, MA, USA) with quenching correction. For metabolite profiling, plasma samples were treated with a mixture of acetonitrile (ACN) +0.2% acetic acid, after shaking and centrifugation, the supernatant was concentrated. Urine and feces samples were treated with solid-phase extraction (Waters HLB 30 mg, 1 mL, Waters, Milford, MA, USA) and liquid–liquid extraction (ACN + 0.2% trifluoroacetic acid/water, 80:20 volume/volume), respectively. Subsequently samples from plasma, urine and feces were analyzed by HPLC-LSC on Synergi Polar 4 µm 150 × 2 mm (Phenomenex, Aschaffenburg, Germany) with off-line radioactivity detection by Microbeta^2™ Plus liquid scintillation counter with Ultima Flo™ AP scintillation fluid (Packard Instrument BV, Groningen, The Netherlands).
For blood/plasma ratio determination, total radioactivity in urine and feces well as data from HPLC analysis data from radioactivity measurement by liquid scintillation counting (LSC) were considered. The amount of radioactivity recovered in the excreta (A E) was related to the administered radioactive dose to establish the radioactive balance. Arithmetic means and coefficients of variation (CV) were calculated for these percentages. […] Cumulative excretion was calculated as sum of the collection intervals. The elimination of the total radioactivity in urine and feces for time-points beyond day 14 was performed by log-linear extrapolation between analyzed time-points. Amounts of radioactivity excreted in urine and feces between two ambulant visits were calculated per interpolated day by linear interpolation of log-transformed excretion data separately per matrix (lnA E(interpolated day) = Δdays × [lnA E(Visit i + 1) − lnA E(Visit i)]/[day (Visit i + 1) − day (Visit i)] + lnA E(Visit i), with A E given as amount of radioactivity excreted in matrix per day and Δdays being the difference between the calculated day and the last available visit with A E > 0). In case no feces sample was provided on an ambulant visit, this visit was neglected for interpolation.

[3] = whole blood, range of 6 subjects

Structure (SMILES): COc1c(OCCCN2CCOCC2)ccc2c1N=C(NC(=O)c1cnc(N)nc1)N1CCN=C21 [Copanlisib, copanlisib]
- Adverse events related to copanlisib ([1]; 12 mg, 6 healthy subjects): Three mild-to-moderate gastrointestinal adverse events
- Subjects with TEAEs assessed as related to the study drug ([1]; abdominal pain, diarrhea and nausea): 2
- Total number of gastrointestinal TEAEs ([1]; abdominal pain, nausea, flatulence, frequent bowel movements, diarrhea): 5
- Neutrophils and leukocytes ([1]; all 6 healthy volunteers, all above 2/3 of the lower limit for normal values): transient decrease
- Other laboratory values, ECG or vital signs ([1]; human, in vivo): No clinically relevant changes
- Tolerability ([1]; single i.v. dose of 12 mg copanlisib, 6 healthy subjects): well tolerated
- Deaths or serious adverse events ([1]; single i.v. dose of 12 mg, 6 healthy subjects): No death or SAEs; also recorded: without any serious adverse event
- Volunteers with at least one treatment emergent adverse event (TEAE) ([1]; single i.v. dose of 12 mg, 6 volunteers): Three out of the 6
- Substrate of efflux transporter P-gp (P-glycoprotein (P-gp)): substrate
- PI3K-α inhibitory activity (PI3K-α): predominant PI3K-α and PI3K-δ inhibitory activity
- Total radioactivity AUC (0–t last) in blood, geometric mean (% CV) ([2]; in vivo): 558 (28.8%) ng-Eq·h/mL
- Total radioactivity AUC (0–t last) in blood, range ([2]; in vivo): 347–756 ng-Eq·h/mL
- Total radioactivity AUC (0–t last) in plasma, geometric mean (% CV) ([2]; in vivo): 324 (54.1%) ng-Eq·h/mL
- Total radioactivity AUC (0–t last) in plasma, range ([2]; in vivo): 150–601 ng-Eq·h/mL
- Total radioactivity t last in plasma, median ([2]; plasma): 60 h
- Total radioactivity t max in plasma, median ([2]; plasma): 60 min
- Recovery of radioactivity extractable from plasma ([2]; plasma extraction, no indication of covalent adduct formation): > 90%
- Total radioactivity C max in plasma, geometric mean (% CV) ([2]; plasma, 12 mg copanlisib (2.76 MBq 14C) 1-h infusion): 45.6 (26.0%) ng-Eq/mL
- Total radioactivity C max in plasma, range ([2]; plasma, range of 6 subjects): 32.1–57.6 ng-Eq/mL
- Total radioactivity t last in plasma, range ([2]; plasma, range of 6 subjects): 24 to 96 h
- Total radioactivity t max in plasma, range ([2]; plasma, range of 6 subjects): 30 to 60 min
- Total radioactivity C max in blood, geometric mean (% CV) ([2]; whole blood): 83.5 (26.3%) ng-Eq/mL
- Total radioactivity t last in blood, median ([2]; whole blood): 72 h
- Total radioactivity t max in blood, median ([2]; whole blood): 60 min
- Total radioactivity C max in blood, range [2, 3]: 59.2–114 ng-Eq/mL
- Total radioactivity t last in blood, range [2, 3]: 36 to 72 h
- Total radioactivity t max in blood, range [2, 3]: 30 to 60 min
